According to PMC11075021, “Asymmetric Synthesis of Chiral 2-Cyclohexenones with Quaternary Stereocenters via Ene-Reductase Catalyzed Desymmetrization of 2,5-Cyclohexadienones” (ACS Catalysis, 2024):

Biological target: T1, YqjM (Bacillus subtilis, UniProt P54550)
T1 construct: gene namA; wild type, purified recombinant enzyme; dimer, both protomers line the active site
T1 sequence (P54550 2-338): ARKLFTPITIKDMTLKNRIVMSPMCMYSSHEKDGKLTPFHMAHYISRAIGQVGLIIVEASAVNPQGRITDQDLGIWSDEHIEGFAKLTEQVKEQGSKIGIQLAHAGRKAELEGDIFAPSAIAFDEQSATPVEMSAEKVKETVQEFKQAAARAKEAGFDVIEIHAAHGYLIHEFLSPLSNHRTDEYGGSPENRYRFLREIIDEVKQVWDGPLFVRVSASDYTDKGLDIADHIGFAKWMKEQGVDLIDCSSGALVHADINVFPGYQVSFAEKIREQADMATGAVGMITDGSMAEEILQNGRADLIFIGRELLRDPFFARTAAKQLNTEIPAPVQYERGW
Assay: stopped-flow oxidation of prereduced enzyme
Assay type: biochemical
Conditions: anoxic; no kinetic saturation in the accessible range

## C[C@@]1(c2ccccc2)C=CC(=O)CC1 [2a, cyclohexenone 2a]
  kobs at 800 μM: Both compounds oxidized prereduced YqjM relatively slowly
